From patent US20240376121A1, “COMPOUNDS AND USES THEREOF” (Foghorn Therapeutics Inc., priority 2021, published 2024)

Columns and labels:
[1] = target: T1, HiBit-BRM fusion protein (Homo sapiens, UniProt P51531); assay: HiBiT-BRM cell-based degradation assay (Nano-Glo HiBiT Lytic Detection); conditions: stable HeLa cell line expressing HiBiT-BRM, 24 h incubation; for BRM HiBit Degradation Maximum (%): top dose 30 μM; for DC50: read-out: BRM HiBit Degradation IC50
T1 construct: expressed in transfected cells
Method: (§1) Procedure: A stable HeLa cell line expressing HiBiT-BRM was generated. On day 0, 5000 cells were seeded in 40 μL of media into each well of 384-well cell culture plates. On day 1, cells were treated with 120 nL DMSO or 120 nL of 3-fold serially DMSO-diluted compounds (10 points in duplicate with 30 μM as final top dose). Subsequently plates were incubated for 24 h in a standard tissue culture incubator and equilibrated at room temperature for 15 minutes. Nano-Glo HiBiT Lytic Detection System (Promega N3050) reagent was freshly prepared and 20 ul was added to each well. Upon addition of this LgBit-containing reagent, the HiBiT and LgBiT proteins associate to form the luminescent NanoBiT luciferase. The plates were shaken for 10 minutes at room temperature and the bioluminescence read using an EnVision plate reader (PerkinElmer).
(§2) The degradation % was calculated using the following formula: % degradation=100%−100%×(LumSample−LumLC)/(LumHC−LumLC). DMSO treated cells are employed as High Control (HC) and 2 μM of a known BRM/BRG1 degrader standard treated cells are employed as Low Control (LC).

[2] = target: T2, HiBit-BRG1 fusion protein (Homo sapiens, UniProt P51532); assay: HiBiT-BRG1 cell-based degradation assay (Nano-Glo HiBiT Lytic Detection); conditions: stable HeLa cell line expressing HiBit-BRG1 and LgBit, 24 h incubation; for Dmax: top dose 30 μM, read-out: BRG1 HiBit Degradation Maximum (%); for DC50: read-out: BRMG1 HiBit Degradation IC50
T2 construct: expressed in transfected cells
Method: as §1
For measurement of BRG1 degradation, a stable HeLa cell line expressing HiBit-BRG1 and LgBit was generated. The same protocol as above was then followed.
as §2

T2 sequence (P51532 whole entry, the tested form may be a part): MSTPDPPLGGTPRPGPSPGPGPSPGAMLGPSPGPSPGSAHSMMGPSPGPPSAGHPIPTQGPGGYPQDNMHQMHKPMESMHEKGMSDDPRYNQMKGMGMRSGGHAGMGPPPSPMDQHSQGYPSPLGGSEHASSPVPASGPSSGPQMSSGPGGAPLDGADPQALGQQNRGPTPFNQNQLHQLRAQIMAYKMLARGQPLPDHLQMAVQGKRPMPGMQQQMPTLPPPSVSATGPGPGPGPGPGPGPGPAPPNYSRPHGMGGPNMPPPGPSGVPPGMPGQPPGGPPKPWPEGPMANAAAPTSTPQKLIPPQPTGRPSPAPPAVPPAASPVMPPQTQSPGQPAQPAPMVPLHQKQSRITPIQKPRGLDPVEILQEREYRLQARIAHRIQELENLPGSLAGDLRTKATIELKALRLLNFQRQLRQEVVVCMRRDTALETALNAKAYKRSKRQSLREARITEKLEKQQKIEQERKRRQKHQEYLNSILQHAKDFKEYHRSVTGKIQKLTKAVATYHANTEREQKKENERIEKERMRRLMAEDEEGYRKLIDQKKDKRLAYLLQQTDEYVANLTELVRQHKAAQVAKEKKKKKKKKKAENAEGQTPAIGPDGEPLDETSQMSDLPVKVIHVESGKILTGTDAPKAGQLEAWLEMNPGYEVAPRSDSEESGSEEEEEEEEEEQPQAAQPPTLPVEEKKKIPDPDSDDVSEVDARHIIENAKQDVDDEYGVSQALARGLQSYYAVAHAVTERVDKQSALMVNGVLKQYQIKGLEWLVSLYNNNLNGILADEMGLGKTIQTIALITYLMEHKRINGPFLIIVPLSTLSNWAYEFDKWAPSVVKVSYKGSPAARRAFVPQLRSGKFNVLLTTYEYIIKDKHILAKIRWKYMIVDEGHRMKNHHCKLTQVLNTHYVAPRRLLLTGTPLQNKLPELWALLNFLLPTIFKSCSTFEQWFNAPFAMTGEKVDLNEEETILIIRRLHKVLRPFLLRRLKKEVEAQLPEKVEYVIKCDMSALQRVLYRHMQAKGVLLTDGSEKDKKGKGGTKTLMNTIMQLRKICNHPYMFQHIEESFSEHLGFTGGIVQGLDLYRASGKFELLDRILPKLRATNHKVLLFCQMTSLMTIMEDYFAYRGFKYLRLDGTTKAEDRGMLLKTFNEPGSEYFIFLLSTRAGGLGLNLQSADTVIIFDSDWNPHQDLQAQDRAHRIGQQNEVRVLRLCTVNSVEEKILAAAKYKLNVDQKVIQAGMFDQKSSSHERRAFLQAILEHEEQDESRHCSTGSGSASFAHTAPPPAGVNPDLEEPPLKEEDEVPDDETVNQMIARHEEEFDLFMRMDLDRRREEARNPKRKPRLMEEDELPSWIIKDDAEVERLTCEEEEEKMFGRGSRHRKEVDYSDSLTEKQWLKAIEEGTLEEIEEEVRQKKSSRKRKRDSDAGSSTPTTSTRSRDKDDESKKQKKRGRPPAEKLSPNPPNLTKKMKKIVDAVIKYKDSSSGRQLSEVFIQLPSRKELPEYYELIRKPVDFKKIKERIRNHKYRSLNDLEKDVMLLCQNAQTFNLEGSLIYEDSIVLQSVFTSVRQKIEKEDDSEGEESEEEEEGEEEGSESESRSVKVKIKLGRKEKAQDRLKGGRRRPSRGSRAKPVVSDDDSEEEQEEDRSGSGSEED
T1 sequence (P51531 whole entry, the tested form may be a part): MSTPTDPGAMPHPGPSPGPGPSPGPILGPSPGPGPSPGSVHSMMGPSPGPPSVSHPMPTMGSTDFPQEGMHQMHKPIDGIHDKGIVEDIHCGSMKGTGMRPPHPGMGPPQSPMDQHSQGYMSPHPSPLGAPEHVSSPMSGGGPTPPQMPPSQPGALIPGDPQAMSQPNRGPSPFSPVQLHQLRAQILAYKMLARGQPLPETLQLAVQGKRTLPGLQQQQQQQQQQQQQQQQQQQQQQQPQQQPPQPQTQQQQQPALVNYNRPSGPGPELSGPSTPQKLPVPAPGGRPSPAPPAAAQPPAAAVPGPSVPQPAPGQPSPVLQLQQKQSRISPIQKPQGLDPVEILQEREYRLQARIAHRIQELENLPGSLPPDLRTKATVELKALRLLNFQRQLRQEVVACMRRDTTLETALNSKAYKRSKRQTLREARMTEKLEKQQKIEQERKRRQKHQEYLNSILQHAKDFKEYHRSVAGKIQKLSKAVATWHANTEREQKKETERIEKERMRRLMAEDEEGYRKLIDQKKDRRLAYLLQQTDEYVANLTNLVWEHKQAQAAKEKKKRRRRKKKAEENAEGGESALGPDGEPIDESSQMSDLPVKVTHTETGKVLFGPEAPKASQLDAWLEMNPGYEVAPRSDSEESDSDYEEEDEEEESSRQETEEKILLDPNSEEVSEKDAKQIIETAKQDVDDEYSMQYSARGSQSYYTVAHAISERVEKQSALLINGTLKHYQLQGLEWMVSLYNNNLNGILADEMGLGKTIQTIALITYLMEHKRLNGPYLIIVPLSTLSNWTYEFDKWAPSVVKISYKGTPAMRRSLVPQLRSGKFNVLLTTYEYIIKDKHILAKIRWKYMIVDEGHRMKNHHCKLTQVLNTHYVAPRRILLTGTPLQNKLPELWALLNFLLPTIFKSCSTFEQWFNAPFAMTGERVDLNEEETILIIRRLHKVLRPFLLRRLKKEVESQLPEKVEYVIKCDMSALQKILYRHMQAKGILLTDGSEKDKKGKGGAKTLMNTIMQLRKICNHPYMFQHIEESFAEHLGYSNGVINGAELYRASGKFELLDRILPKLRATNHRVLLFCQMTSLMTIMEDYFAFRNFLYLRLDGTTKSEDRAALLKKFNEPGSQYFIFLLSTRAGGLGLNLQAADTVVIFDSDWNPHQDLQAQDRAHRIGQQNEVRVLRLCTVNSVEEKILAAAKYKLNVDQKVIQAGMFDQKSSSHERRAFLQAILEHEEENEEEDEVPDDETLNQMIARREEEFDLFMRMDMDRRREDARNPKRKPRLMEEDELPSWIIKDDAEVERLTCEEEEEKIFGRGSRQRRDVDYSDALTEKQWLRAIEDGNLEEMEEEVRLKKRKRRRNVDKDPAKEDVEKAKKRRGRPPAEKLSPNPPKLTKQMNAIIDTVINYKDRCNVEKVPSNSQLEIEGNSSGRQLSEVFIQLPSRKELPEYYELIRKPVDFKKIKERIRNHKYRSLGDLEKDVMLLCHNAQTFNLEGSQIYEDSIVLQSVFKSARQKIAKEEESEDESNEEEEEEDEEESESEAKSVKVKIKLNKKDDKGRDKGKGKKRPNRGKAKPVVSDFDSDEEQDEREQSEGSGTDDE

| Compound | BRM HiBit Degradation Maximum (%) [1] | DC50 [1] [nM] | Dmax [2] [%] | DC50 [2] [nM] |
| --- | --- | --- | --- | --- |
| Cc1ncsc1-c1ccc([C@H](C)NC(=O)[C@@H]2C[C@@H](O)CN2C(=O)[C@@H](c2cc(OCCN3CC(c4cc5nnc(-c6ccccc6O)cc5s4)C3)no2)C(C)C)cc1 [Compound 9, (2S,4R)-4-hydroxy-1-((R)-2-(3-(2-(3-(3-(2-hydroxyphenyl)thieno[3,2-c]pyridazin-6-yl)azetidin-1-yl)ethoxy)isoxazol-5-yl)-3-methylbutanoyl)-N—((S)-1-(4-(4-methylthiazol-5-yl)phenyl)ethyl)pyrrolidine-2-carboxamide] | A (“A” indicates maximum degradation ≥ 75%) | ≥ 10 | < 50 | ≥ 1000 |
| Cc1ncsc1-c1ccc([C@H](C)NC(=O)[C@@H]2C[C@@H](O)CN2C(=O)[C@@H](c2cc(N3CCC(C(=O)N4CC(c5sc6nnc(-c7ccccc7O)cc6c5C)C4)CC3)no2)C(C)C)cc1 [Compound 10] | A (“A” indicates maximum degradation ≥ 75%) | ≥ 10 | < 50 | ≥ 1000 |
| Cc1ncsc1-c1ccc([C@H](C)NC(=O)[C@@H]2C[C@@H](O)CN2C(=O)[C@@H](c2cc(N3CCC(C(=O)N4CCc5sc6nnc(-c7ccccc7O)cc6c5C4)CC3)no2)C(C)C)cc1 [Compound 11, (2S,4R)-4-hydroxy-1-((R)-2-(3-(4-(3-(2-hydroxyphenyl)-5,6,7,8-tetrahydropyrido[3′,4′:4,5]thieno[2,3-c]pyridazine-6-carbonyl)piperidin-1-yl)isoxazol-5-yl)-3-methylbutanoyl)-N—((S)-1-(4-(4-methylthiazol-5-yl)phenyl)ethyl)pyrrolidine-2-carboxamide] | A (“A” indicates maximum degradation ≥ 75%) | ≥ 100 | < 50 | ≥ 1000 |
| Cc1ncsc1-c1ccc([C@H](C)NC(=O)[C@@H]2C[C@@H](O)CN2C(=O)[C@H](c2cc(C3CCN(C(=O)CN4CC(c5cc6cc(-c7ccccc7O)nnc6s5)C4)CC3)no2)C(C)C)cc1 [Compound 12] | C (“C” indicates maximum degradation < 50%) | ≥ 1000 | < 50 | ≥ 1000 |
| Cc1ncsc1-c1ccc([C@H](C)NC(=O)[C@@H]2C[C@@H](O)CN2C(=O)[C@@H](c2cc(C3CCN(C(=O)CN4CC(c5cc6cc(-c7ccccc7O)nnc6s5)C4)CC3)no2)C(C)C)cc1 [Compound 13] | B (“B” indicates maximum degradation ≥ 50%) | ≥ 100 | < 50 | ≥ 1000 |
| Cc1ncsc1-c1ccc([C@H](C)NC(=O)[C@@H]2C[C@@H](O)CN2C(=O)[C@@H](c2cc(OCCN3CC(c4c(C)sc5nnc(-c6ccccc6O)cc45)C3)no2)C(C)C)cc1 [Compound 14] | C (“C” indicates maximum degradation < 50%) | ≥ 1000 | < 50 | ≥ 1000 |
| Cc1ncsc1-c1ccc([C@@H](C)NC(=O)[C@H]2C[C@H](O)CN2C(=O)[C@H](c2cc(OCCN3C[C@@H]4[C@H](C3)[C@H]4c3sc4nnc(-c5ccccc5O)cc4c3C)no2)C(C)C)cc1 [Compound 15] | A (“A” indicates maximum degradation ≥ 75%) | ≥ 10 | < 50 | ≥ 1000 |
| Cc1ncsc1-c1ccc([C@H](C)NC(=O)[C@@H]2C[C@@H](O)CN2C(=O)[C@@H](c2cc(OCCN3CC(Cc4sc5nnc(-c6ccccc6O)cc5c4C)C3)no2)C(C)C)cc1 [Compound 16] | A (“A” indicates maximum degradation ≥ 75%) | ≥ 10 | < 50 | ≥ 1000 |
| Cc1ncsc1-c1ccc(CNC(=O)[C@H]2C[C@H](O)CN2C(=O)[C@H](NC(=O)CCN2CC(c3sc4nnc(-c5ccccc5O)cc4c3C)C2)C(C)(C)C)cc1 [Compound 17] | C (“C” indicates maximum degradation < 50%) | ≥ 1000 | < 50 | ≥ 1000 |
| Cc1ncsc1-c1ccc(CNC(=O)[C@@H]2C[C@@H](O)CN2C(=O)[C@@H](NC(=O)CCCCC(=O)N2CC(c3sc4nnc(-c5ccccc5O)cc4c3C)C2)C(C)(C)C)cc1 [Compound 18] | C (“C” indicates maximum degradation < 50%) | ≥ 1000 | < 50 | ≥ 1000 |
| Cc1ncsc1-c1ccc(CNC(=O)[C@@H]2C[C@@H](O)CN2C(=O)[C@@H](NC(=O)CCCC(=O)N2CC(c3sc4nnc(-c5ccccc5O)cc4c3C)C2)C(C)(C)C)cc1 [Compound 19] | A (“A” indicates maximum degradation ≥ 75%) | ≥ 1000 | ≥ 75 | ≥ 1000 |
| Cc1ncsc1-c1ccc(CNC(=O)[C@H]2C[C@H](O)CN2C(=O)[C@H](NC(=O)CCC(=O)N2CC(c3sc4nnc(-c5ccccc5O)cc4c3C)C2)C(C)(C)C)cc1 [Compound 20] | C (“C” indicates maximum degradation < 50%) | ≥ 1000 | < 50 | ≥ 1000 |
| Cc1ncsc1-c1ccc([C@H](C)NC(=O)[C@@H]2C[C@@H](O)CN2C(=O)[C@@H](c2cc(OCCN3C[C@@H]4[C@H](C3)[C@H]4c3c(C)sc4nnc(-c5ccccc5O)cc34)no2)C(C)C)cc1 [Compound 21] | C (“C” indicates maximum degradation < 50%) | ≥ 1000 | < 50 | ≥ 1000 |
| Cc1ncsc1-c1ccc([C@H](C)NC(=O)[C@@H]2C[C@@H](O)CN2C(=O)[C@@H](c2cc(OCCN3CC(c4sc5nnc(-c6ccccc6O)cc5c4C)C3)no2)C(C)C)cc1 [Compound 22] | A (“A” indicates maximum degradation ≥ 75%) | ≥ 10 | ≥ 50 | ≥ 10 |
| Cc1ncsc1-c1ccc([C@@H](C)NC(=O)[C@H]2C[C@H](O)CN2C(=O)[C@H](c2cc(OCCN3CC(Cc4cc5cc(-c6ccccc6O)nnc5s4)C3)no2)C(C)C)cc1 [Compound 23] | B (“B” indicates maximum degradation ≥ 50%) | ≥ 100 | < 50 | ≥ 1000 |
| Cc1ncsc1-c1ccc(CNC(=O)[C@@H]2C[C@@H](O)CN2C(=O)[C@@H](NC(=O)CCN2CCC(c3cc4cc(-c5ccccc5O)nnc4s3)CC2)C(C)(C)C)cc1 [Compound 24] | C (“C” indicates maximum degradation < 50%) | ≥ 1000 | < 50 | ≥ 1000 |
| Cc1ncsc1-c1ccc(CNC(=O)[C@@H]2C[C@@H](O)CN2C(=O)[C@@H](NC(=O)CCC(=O)N2CC(c3cc4cc(-c5ccccc5O)nnc4s3)C2)C(C)(C)C)cc1 [Compound 25] | C (“C” indicates maximum degradation < 50%) | ≥ 1000 | < 50 | ≥ 1000 |
| Cc1ncsc1-c1ccc(CNC(=O)[C@@H]2C[C@@H](O)CN2C(=O)[C@@H](NC(=O)CCN2CC(c3cc4cc(-c5ccccc5O)nnc4s3)C2)C(C)(C)C)cc1 [Compound 26] | C (“C” indicates maximum degradation < 50%) | ≥ 1000 | < 50 | ≥ 1000 |
| Cc1ncsc1-c1ccc(CNC(=O)[C@@H]2C[C@@H](O)CN2C(=O)[C@@H](NC(=O)CCC(=O)N2CCC(c3cc4cc(-c5ccccc5O)nnc4s3)CC2)C(C)(C)C)cc1 [Compound 27] | B (“B” indicates maximum degradation ≥ 50%) | ≥ 1000 | < 50 | ≥ 1000 |
| Cc1ncsc1-c1ccc(CNC(=O)[C@@H]2C[C@@H](O)CN2C(=O)[C@@H](NC(=O)CCCC(=O)N2CCC(c3cc4cc(-c5ccccc5O)nnc4s3)CC2)C(C)(C)C)cc1 [Compound 28] | B (“B” indicates maximum degradation ≥ 50%) | ≥ 1000 | < 50 | ≥ 1000 |
| Cc1ncsc1-c1ccc(CNC(=O)[C@@H]2C[C@@H](O)CN2C(=O)[C@@H](NC(=O)CCCCC(=O)N2CCC(c3cc4cc(-c5ccccc5O)nnc4s3)CC2)C(C)(C)C)cc1 [Compound 29] | C (“C” indicates maximum degradation < 50%) | ≥ 1000 | < 50 | ≥ 1000 |
| Cc1ncsc1-c1ccc(CNC(=O)[C@@H]2C[C@@H](O)CN2C(=O)[C@@H](NC(=O)CCCCC(=O)N2CC(c3cc4cc(-c5ccccc5O)nnc4s3)C2)C(C)(C)C)cc1 [Compound 30] | C (“C” indicates maximum degradation < 50%) | ≥ 1000 | < 50 | ≥ 1000 |
| Cc1ncsc1-c1ccc(CNC(=O)[C@@H]2C[C@@H](O)CN2C(=O)[C@@H](NC(=O)CCCC(=O)N2CC(c3cc4cc(-c5ccccc5O)nnc4s3)C2)C(C)(C)C)cc1 [Compound 31] | C (“C” indicates maximum degradation < 50%) | ≥ 100 | < 50 | ≥ 1000 |
